Measurements as given in patent US12655116B2, “Substituted isophthalic acid diamides” (Bayer Aktiengesellschaft, priority 2020, dated 2026).

What was measured:
ECHCG [1] = experiment: Post-emergence herbicidal action against ECHCG; type: in vivo, Echinochloa crus-galli
Method in brief: (§1)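 Sandy loam, greenhouse; treatment 2–3 weeks after sowing, one-leaf stage. Aqueous suspension or emulsion from WP/EC sprayed on foliage (600–800 l/ha, 0.2% wetting agent). Readout: visual % action, ~3 weeks.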

SETVI [2] = experiment: Post-emergence herbicidal action against SETVI; type: in vivo, Setaria viridis
Method in brief: as §1

ALOMY [3] = experiment: Pre-emergence herbicidal action against ALOMY; type: in vivo, Alopecurus myosuroides; details: pre-emergence; for Pre-emergence action against ALOMY (herbicidal activity) / pest or weed control at 80 g/ha: 80 g/ha, scored visually after 3 weeks vs untreated controls (100% = plants have died, 0% = like control plants)
Method in brief: (§2)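 Seeds sown in sandy loam, soil-covered; compound sprayed on soil surface pre-emergence. Application: WP/EC, 600–800 l/ha, 0.2% wetting agent. Readout: visual % damage at 3 weeks.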

MATIN [4] = experiment: Pre-emergence herbicidal action against MATIN; type: in vivo, Matricaria inodora
Method in brief: as §2

PHBPU = experiment: Post-emergence herbicidal action against PHBPU; type: in vivo, Pharbitis purpurea; details: dosage 20 g/ha; for pest or weed control at 20 g/ha: Ipomoea purpurea, 504 h
Method in brief: as §1

VERPE [5] = experiment: Pre-emergence herbicidal action against VERPE; type: in vivo, Veronica persica
Method in brief: as §2

VIOTR [6] = experiment: Post-emergence herbicidal action against VIOTR; type: in vivo, Viola tricolor; details: for pest or weed control at 20 g/ha: Viola tricolor, 504 h
Method in brief: as §1

SETVI [7] = experiment: Pre-emergence herbicidal action against SETVI; type: in vivo, Setaria viridis; details: dosage 80 g/ha
Method in brief: as §2

ABUTH [8] = experiment: Pre-emergence herbicidal action against ABUTH; type: in vivo, Abutilon theophrasti; details: for Pre-emergence action against ABUTH (herbicidal activity) / pest or weed control at 80 g/ha: 80 g/ha, scored visually after 3 weeks vs untreated controls (100% = plants have died, 0% = like control plants); for Pre-emergence action against ABUTH (herbicidal activity in percent): dosage 20 g/ha, scored visually after 3 weeks vs untreated controls, 100% = plants have died, 0% = like control plants; for pest or weed control at 80 g/ha: Abutilon theophrasti, 504 h
Method in brief: as §2

VERPE [9] = experiment: Post-emergence herbicidal action against VERPE; type: in vivo, Veronica persica; details: 20 g/ha; for pest or weed control at 20 g/ha: Veronica persica, 504 h
Method: Seeds of monocotyledonous and dicotyledonous weed and crop plants are laid out in sandy loam soil in wood-fiber pots, covered with soil and cultivated in a greenhouse under good growth conditions. 2 to 3 weeks after sowing, the test plants are treated at the one-leaf stage. The compounds of the invention, formulated in the form of wettable powders (WP) or as emulsion concentrates (EC), are then sprayed onto the green parts of the plants in the form of an aqueous suspension or emulsion at a water application rate equivalent to 600 to 800 l/ha, with addition of 0.2% wetting agent. After the test plants have been left to stand in the greenhouse under optimal growth conditions for about 3 weeks, the action of the preparations is assessed visually in comparison to untreated controls (herbicidal action in percent (%): 100% activity=the plants have died, 0% activity=like control plants). […] The tables below illustrate, in an illustrative manner, the post-emergence herbicidal action of the compounds of the invention, the herbicidal activity being stated in percent.

ABUTH [10] = experiment: Post-emergence herbicidal action against ABUTH; type: in vivo, Abutilon theophrasti; details: visual assessment about 3 weeks after treatment vs untreated controls
Method in brief: as §1

MATIN [11] = experiment: Post-emergence herbicidal action against MATIN; type: in vivo, Matricaria inodora; details: dosage 20 g/ha
Method in brief: as §1

VIOTR [12] = experiment: Pre-emergence herbicidal action against VIOTR; type: in vivo, Viola tricolor
Method in brief: as §2

AMARE [13] = experiment: Pre-emergence herbicidal action against AMARE; type: in vivo, Amaranthus retroflexus; details: for pest or weed control at 20 g/ha / pest or weed control at 80 g/ha: Amaranthus retroflexus, 504 h
Method in brief: as §2

ECHCG [14] = experiment: Pre-emergence herbicidal action against ECHCG; type: in vivo, Echinochloa crus-galli; details: 80 g/ha
Method in brief: as §2

AMARE [15] = experiment: Post-emergence herbicidal action against AMARE; type: in vivo, Amaranthus retroflexus; details: 20 g/ha, visual assessment about 3 weeks after treatment, 100% = plants have died, 0% = like control plants; for pest or weed control at 20 g/ha: Amaranthus retroflexus, 504 h
Method in brief: as §1

ALOMY [16] = experiment: Post-emergence herbicidal action against ALOMY; type: in vivo, Alopecurus myosuroides; details: dosage 20 g/ha, visual assessment about 3 weeks after treatment vs untreated controls; for pest or weed control at 20 g/ha: Alopecurus myosuroides, 504 h
Method in brief: as §1

DIGSA [17] = experiment: Post-emergence herbicidal action against DIGSA; type: in vivo, Digitaria sanguinalis; details: Digitaria sanguinalis, 504 h
Method in brief: as §1

DIGSA [18] = experiment: Pre-emergence herbicidal action against DIGSA; type: in vivo, Digitaria sanguinalis; details: Digitaria sanguinalis, 504 h
Method in brief: as §2

AVEFA = experiment: Pre-emergence herbicidal action against AVEFA; type: in vivo, Avena fatua; details: 80 g/ha, pre-emergence
Method in brief: as §2

[19] = 20 g/ha, scored visually after 3 weeks vs untreated controls, 100% = plants have died, 0% = like control plants
[20] = 80 g/ha, scored visually after 3 weeks vs untreated controls (100% = plants have died, 0% = like control plants)
[21] = Tripleurospermum inodorum, 504 h, dosage 80 g/ha
[22] = Viola tricolor, 504 h, dosage 80 g/ha
[23] = 80 g/ha, scored visually after 3 weeks vs untreated controls, 100% = plants have died, 0% = like control plants

CSc1c(C(=O)Nc2nnnn2C)ccc(C(F)F)c1C(=O)NCC1CC1 [Example 1-90]
90%: Post-emergence action against SETVI in % (SETVI [2]; dosage 20 g/ha) | Post-emergence action against PHBPU in % (PHBPU) | Pre-emergence action against VERPE in % (VERPE [5]; dosage 80 g/ha) | Post-emergence action against VERPE in % (VERPE [9]) | Post-emergence action against ABUTH in % (ABUTH [10]; dosage 20 g/ha) | Pre-emergence action against VIOTR in % (VIOTR [12]; dosage 20 g/ha)
100%: Post-emergence action against ECHCG in % (ECHCG [1]; dosage 20 g/ha) | Pre-emergence action against MATIN in % (MATIN [4]; dosage 20 g/ha) | Pre-emergence action against MATIN in % (MATIN [4]; dosage 80 g/ha) | Post-emergence action against VIOTR in % (VIOTR [6]; 20 g/ha) | Pre-emergence action against SETVI in % (SETVI [7]) | Pre-emergence action against ABUTH (herbicidal activity) (ABUTH [8]) | Pre-emergence action against ABUTH (herbicidal activity in percent) (ABUTH [8]) | Pre-emergence action against VIOTR in % (VIOTR [12]; dosage 80 g/ha) | Pre-emergence action against AMARE in % (AMARE [13]; [19]) | Pre-emergence action against AMARE in % (AMARE [13]; [20]) | Pre-emergence action against ECHCG in % (ECHCG [14]) | Post-emergence action at 20 g/ha against AMARE in % (AMARE [15])
80%: Pre-emergence action against ALOMY (herbicidal activity) (ALOMY [3]) | Post-emergence action against VIOTR in % (VIOTR [6]; 5 g/ha) | Post-emergence action against ABUTH in % (ABUTH [10]; dosage 5 g/ha) | Post-emergence action against MATIN in % (MATIN [11]) | Post-emergence action against ALOMY in % (ALOMY [16])

COc1ccc(C(=O)Nc2nnnn2C)c(Cl)c1C(=O)NC1CC1 [Example 1-356]
90%: pest or weed control at 20 g/ha (VIOTR [6]; 20 g/ha) | pest or weed control at 20 g/ha (VERPE [9])
100%: pest or weed control at 80 g/ha (ALOMY [3]; Alopecurus myosuroides, 504 h) | pest or weed control at 80 g/ha (MATIN [4]; [21]) | pest or weed control at 20 g/ha (VERPE [5]; Veronica persica, 504 h, dosage 20 g/ha) | pest or weed control at 80 g/ha (VERPE [5]; Veronica persica, 504 h, dosage 80 g/ha) | pest or weed control at 80 g/ha (ABUTH [8]) | pest or weed control at 20 g/ha (ABUTH [10]; Abutilon theophrasti, 504 h, dosage 20 g/ha) | pest or weed control at 80 g/ha (VIOTR [12]; [22]) | pest or weed control at 20 g/ha (AMARE [13]; [19]) | pest or weed control at 80 g/ha (AMARE [13]; [23]) | pest or weed control at 20 g/ha (AMARE [15])
80%: pest or weed control at 20 g/ha (PHBPU) | pest or weed control at 20 g/ha (ALOMY [16])

Cn1nnnc1NC(=O)c1ccc(C(F)(F)F)c(C(=O)NCC(F)(F)F)c1Cl [Example 1-133]
80%: pest or weed control at 20 g/ha (PHBPU) | pest or weed control at 20 g/ha (VIOTR [6]; 20 g/ha)
100%: pest or weed control at 20 g/ha (SETVI [2]; Setaria viridis, 504 h, dosage 20 g/ha) | pest or weed control at 80 g/ha (MATIN [4]; [21]) | pest or weed control at 80 g/ha (SETVI [7]; Setaria viridis, 504 h) | pest or weed control at 80 g/ha (ABUTH [8]) | pest or weed control at 20 g/ha (VIOTR [12]; Viola tricolor, 504 h, dosage 20 g/ha) | pest or weed control at 80 g/ha (VIOTR [12]; [22]) | pest or weed control at 80 g/ha (AMARE [13]; [23]) | pest or weed control at 80 g/ha (DIGSA [18]; dosage 80 g/ha) | pest or weed control at 80 g/ha (ECHCG [14]; Echinochloa crus-galli, 504 h) | pest or weed control at 80 g/ha (AVEFA; Avena fatua, 504 h) | pest or weed control at 20 g/ha (AMARE [15])
90%: pest or weed control at 5 g/ha (SETVI [2]; Setaria viridis, 504 h, dosage 5 g/ha) | pest or weed control at 80 g/ha (ALOMY [3]; Alopecurus myosuroides, 504 h) | pest or weed control at 20 g/ha (ALOMY [3]; Alopecurus myosuroides, 504 h, 20 g/ha, scored visually after 3 weeks, 100% = plants have died, 0% = like control plants) | pest or weed control at 20 g/ha (MATIN [4]; Tripleurospermum inodorum, 504 h, dosage 20 g/ha) | pest or weed control at 5 g/ha (DIGSA [17]; 5 g/ha) | pest or weed control at 20 g/ha (DIGSA [17]; 20 g/ha) | pest or weed control at 20 g/ha (VERPE [9]) | pest or weed control at 20 g/ha (AMARE [13]; [19]) | pest or weed control at 20 g/ha (DIGSA [18]; dosage 20 g/ha) | pest or weed control at 20 g/ha (ALOMY [16])

CCn1nnnc1NC(=O)c1ccc(C(F)F)c(C(=O)NCCOC)c1C [Example 2-346]
100%: Post-emergence action against VIOTR in % (VIOTR [6]; 20 g/ha) | Pre-emergence action against AMARE in % (AMARE [13]; [19]) | Pre-emergence action against AMARE in % (AMARE [13]; [20]) | Post-emergence action at 20 g/ha against AMARE in % (AMARE [15])
80%: Post-emergence action against ECHCG in % (ECHCG [1]; dosage 5 g/ha) | Pre-emergence action against ALOMY (herbicidal activity) (ALOMY [3]) | Post-emergence action against PHBPU in % (PHBPU) | Pre-emergence action against VERPE in % (VERPE [5]; dosage 80 g/ha) | Post-emergence action against VIOTR in % (VIOTR [6]; 5 g/ha) | Pre-emergence action against ABUTH (herbicidal activity in percent) (ABUTH [8]) | Post-emergence action against VERPE in % (VERPE [9]) | Pre-emergence action against VIOTR in % (VIOTR [12]; dosage 20 g/ha) | Pre-emergence action against VIOTR in % (VIOTR [12]; dosage 80 g/ha) | Pre-emergence action against AVEFA in % (AVEFA) | Post-emergence action against ALOMY in % (ALOMY [16])
90%: Post-emergence action against ECHCG in % (ECHCG [1]; dosage 20 g/ha) | Pre-emergence action against MATIN in % (MATIN [4]; dosage 20 g/ha) | Pre-emergence action against MATIN in % (MATIN [4]; dosage 80 g/ha) | Pre-emergence action against ABUTH (herbicidal activity) (ABUTH [8]) | Post-emergence action against ABUTH in % (ABUTH [10]; dosage 5 g/ha) | Post-emergence action against ABUTH in % (ABUTH [10]; dosage 20 g/ha) | Pre-emergence action against ECHCG in % (ECHCG [14])

CCn1nnnc1NC(=O)c1ccc(Br)c(C(=O)NCCOC)c1Cl [Example 2-186]
100%: Pre-emergence action against ALOMY (herbicidal activity) (ALOMY [3]) | Pre-emergence action against MATIN in % (MATIN [4]; dosage 80 g/ha) | Pre-emergence action against ABUTH (herbicidal activity) (ABUTH [8]) | Pre-emergence action against ABUTH (herbicidal activity in percent) (ABUTH [8]) | Pre-emergence action against AMARE in % (AMARE [13]; [19]) | Pre-emergence action against AMARE in % (AMARE [13]; [20]) | Pre-emergence action against ECHCG in % (ECHCG [14]) | Post-emergence action at 20 g/ha against AMARE in % (AMARE [15])
90%: Pre-emergence action against VERPE in % (VERPE [5]; dosage 80 g/ha) | Post-emergence action against ABUTH in % (ABUTH [10]; dosage 20 g/ha) | Pre-emergence action against VIOTR in % (VIOTR [12]; dosage 80 g/ha)
80%: Pre-emergence action against MATIN in % (MATIN [4]; dosage 20 g/ha) | Post-emergence action against VIOTR in % (VIOTR [6]; 20 g/ha) | Post-emergence action against VERPE in % (VERPE [9]) | Post-emergence action against ABUTH in % (ABUTH [10]; dosage 5 g/ha) | Pre-emergence action against AVEFA in % (AVEFA) | Post-emergence action against ALOMY in % (ALOMY [16])
